The source of these data is patent publication US20080234262A1 (Wyeth, priority 2007, published 2008).

The target of experiment [1] is PI3K (Homo sapiens, UniProt P42336). Nature of the experiment: Fluorescence polarization assay for PI3K.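 Also: PI3K kinase reaction on PIP2 with ATP, 30-60 min, product sensed by GST-GRP with red probe in fluorescence polarization (mP), controls without enzyme and at zero time.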 It counts as biochemical. To be noted: PI3Kα; read-out: PI3Kα IC50.
For experiment [2], the system named is prostate line LNCap. Briefly: In vitro cell culture growth assay (MTS), LNCap.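 Also: viable cell density read by absorbance at 490 nm, growth expressed as percent of vehicle-treated cells on the same plate.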 It counts as cell-based, human. To be noted: LNCap cells, three days after drug treatment.
Experiment [3] deals with breast line MDA468. Nature of the experiment: In vitro cell culture growth assay (MTS), MDA468. It counts as cell-based, human. The conditions noted are these: MDA468 cells, three days after drug treatment. Summed up:
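Steps: plate cells; add inhibitors the next day; incubate 3 days; add MTS dye, which viable cells convert metabolically; measure absorbance at 490 nm; calculate percent of control growth relative to vehicle-treated cells in the same plate.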

Chain of PI3K (P42336 whole entry): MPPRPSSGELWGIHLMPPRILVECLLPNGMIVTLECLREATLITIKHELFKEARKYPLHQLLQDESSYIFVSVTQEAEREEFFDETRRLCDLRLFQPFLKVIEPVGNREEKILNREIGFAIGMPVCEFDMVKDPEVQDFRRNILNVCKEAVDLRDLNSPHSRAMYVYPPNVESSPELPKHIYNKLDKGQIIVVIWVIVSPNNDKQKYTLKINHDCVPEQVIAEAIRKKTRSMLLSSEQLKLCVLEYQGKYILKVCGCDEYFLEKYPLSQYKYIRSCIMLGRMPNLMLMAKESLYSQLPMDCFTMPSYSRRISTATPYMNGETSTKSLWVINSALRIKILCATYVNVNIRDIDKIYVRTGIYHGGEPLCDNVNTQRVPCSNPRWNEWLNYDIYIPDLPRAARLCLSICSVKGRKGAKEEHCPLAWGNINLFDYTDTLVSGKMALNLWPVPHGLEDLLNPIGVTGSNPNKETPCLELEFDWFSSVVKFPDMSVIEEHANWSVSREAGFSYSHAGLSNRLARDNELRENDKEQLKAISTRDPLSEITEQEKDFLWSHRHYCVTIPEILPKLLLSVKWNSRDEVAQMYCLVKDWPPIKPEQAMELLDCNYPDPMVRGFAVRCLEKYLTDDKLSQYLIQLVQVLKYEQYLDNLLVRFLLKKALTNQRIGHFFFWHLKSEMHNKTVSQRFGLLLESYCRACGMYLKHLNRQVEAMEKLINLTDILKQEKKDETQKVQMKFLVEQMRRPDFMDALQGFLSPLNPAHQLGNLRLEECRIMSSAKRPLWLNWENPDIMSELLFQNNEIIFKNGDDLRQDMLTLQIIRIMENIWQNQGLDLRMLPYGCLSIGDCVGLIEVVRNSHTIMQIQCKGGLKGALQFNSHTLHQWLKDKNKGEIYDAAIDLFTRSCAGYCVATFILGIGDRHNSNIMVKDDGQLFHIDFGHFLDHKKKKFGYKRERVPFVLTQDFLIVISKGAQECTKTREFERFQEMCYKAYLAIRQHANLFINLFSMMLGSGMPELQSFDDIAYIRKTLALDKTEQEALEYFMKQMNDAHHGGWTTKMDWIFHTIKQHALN
Chain of PI3K (P27986 whole entry partner): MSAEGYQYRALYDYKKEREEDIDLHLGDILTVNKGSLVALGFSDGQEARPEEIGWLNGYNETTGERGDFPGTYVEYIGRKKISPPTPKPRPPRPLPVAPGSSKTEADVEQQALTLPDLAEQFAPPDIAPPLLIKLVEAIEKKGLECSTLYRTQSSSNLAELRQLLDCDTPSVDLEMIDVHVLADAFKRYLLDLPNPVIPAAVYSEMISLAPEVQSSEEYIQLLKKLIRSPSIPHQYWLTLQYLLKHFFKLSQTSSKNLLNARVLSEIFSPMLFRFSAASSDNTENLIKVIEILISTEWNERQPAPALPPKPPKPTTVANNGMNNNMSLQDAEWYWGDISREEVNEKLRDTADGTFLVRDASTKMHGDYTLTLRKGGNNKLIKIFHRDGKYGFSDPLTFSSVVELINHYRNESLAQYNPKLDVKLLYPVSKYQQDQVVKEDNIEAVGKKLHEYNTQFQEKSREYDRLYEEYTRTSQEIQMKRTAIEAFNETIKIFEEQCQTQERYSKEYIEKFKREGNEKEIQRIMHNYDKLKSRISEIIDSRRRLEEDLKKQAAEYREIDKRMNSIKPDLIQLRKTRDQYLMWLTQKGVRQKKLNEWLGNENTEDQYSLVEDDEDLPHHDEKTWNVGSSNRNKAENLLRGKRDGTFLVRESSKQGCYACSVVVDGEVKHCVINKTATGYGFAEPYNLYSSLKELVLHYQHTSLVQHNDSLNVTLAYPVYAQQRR

What is called IC50 is the concentration that gives 50% inhibition. Take `CC(C)(C)OC(=O)N1CCC(n2ncc3c(N4CCOCC4)nc(-c4ccc(NC(=O)Nc5ccc(F)nc5)cc4)nc32)CC1` [Compound 952, tert-butyl 4-[6-(4-{[(6-fluoropyridin-3-yl)carbamoyl]amino}phenyl)-4-morpholin-4-yl-1H-pyrazolo[3,4-d]pyrimidin-1-yl]piperidine-1-carboxylate]: the IC50 in experiment [1] amounted to 130 nM; in experiment [2] (Homo sapiens, LNCaP, 72 h), 60 nM; in experiment [3] (Homo sapiens, 72 h), 750 nM.
Take `CN(C)CCNC(=O)c1ccc(-c2nc(N3CCOCC3)c3cnn(-c4ccccc4)c3n2)cc1` [Compound 103]: the IC50 was found to be 580 nM in experiment [1]; 3900 nM in experiment [2] (Homo sapiens, LNCaP, 72 h); 5000 nM in experiment [3] (Homo sapiens, 72 h).
Taken in the same sequence, the figures for `Oc1cccc(-c2nc(N3CCCOCC3)c3cnn(-c4ccccc4)c3n2)c1` [Compound 962, 3-[4-(1,4-oxazepan-4-yl)-1-phenyl-1H-pyrazolo[3,4-d]pyrimidin-6-yl]phenol] were 1090 nM, 6000 nM and 12000 nM.
For `CN(C)c1ccc(-c2nc(N3CCOCC3)c3cnn(-c4ccccc4)c3n2)cc1` [Compound 114] the same measures were 393 nM, 15000 nM and 27000 nM.
On to `CC(C)(C)OC(=O)N1CCC[C@H](n2ncc3c(N4CCOCC4)nc(-c4ccc5[nH]ccc5c4)nc32)C1` [Compound 169], for which the IC50 stood at 341 nM in experiment [1]; 2000 nM in experiment [2] (Homo sapiens, LNCaP, 72 h); 12000 nM in experiment [3] (Homo sapiens, 72 h).
On to `O=C(Nc1ccc(-c2nc(N3CCOCC3)c3cnn(C4CCN(C(=O)c5cccnc5)CC4)c3n2)cc1)Nc1ccsc1` [Compound 658, 1-(4-{4-morpholin-4-yl-1-[1-(pyridin-3-ylcarbonyl)piperidin-4-yl]-1H-pyrazolo[3,4-d]pyrimidin-6-yl}phenyl)-3-(3-thienyl)urea], for which the IC50 in experiment [1] was found to be 18 nM; in experiment [2], 40 nM; in experiment [3], 75 nM.
Consider `COC(=O)N1CCC(n2ncc3c(N4CCOCC4)nc(-c4ccc(NC(=O)Nc5ccccc5F)cc4)nc32)CC1` [Compound 860, methyl 4-[6-(4-{[(2-fluorophenyl)carbamoyl]amino}phenyl)-4-morpholin-4-yl-1H-pyrazolo[3,4-d]pyrimidin-1-yl]piperidine-1-carboxylate], for which the IC50 in experiment [1] was 38 nM; in experiment [2] (Homo sapiens, LNCaP, 72 h), 120 nM; in experiment [3] (Homo sapiens, 72 h), 390 nM.
For `O=C(NCCF)Nc1ccc(-c2nc(N3CCOCC3)c3cnn(C4CCN(C(=O)c5ccccc5)CC4)c3n2)cc1` [Compound 625, 1-{4-[1-(1-benzoylpiperidin-4-yl)-4-morpholin-4-yl-1H-pyrazolo[3,4-d]pyrimidin-6-yl]phenyl}-3-(2-fluoroethyl)urea], the IC50 in experiment [1] is 454 nM; in experiment [2], less than 27 nM; in experiment [3] (Homo sapiens, 72 h) it was 27 nM.
As to `COC(=O)N1CCC(n2ncc3c(N4CCOCC4)nc(-c4ccc(NC(=O)Nc5ccc(F)nc5)cc4)nc32)CC1` [Compound 862, methyl 4-[6-(4-{[(6-fluoropyridin-3-yl)carbamoyl]amino}phenyl)-4-morpholin-4-yl-1H-pyrazolo[3,4-d]pyrimidin-1-yl]piperidine-1-carboxylate], the IC50 in experiment [1] is 107 nM; in experiment [2] (Homo sapiens, LNCaP, 72 h), less than 23 nM; in experiment [3] (Homo sapiens, 72 h), less than 88.5 nM.
Taken in the same sequence, the figures for `CC(C)(C)OC(=O)N1CCC(n2ncc3c(N4CCOCC4)nc(-c4ccc(NC(=O)Nc5ccccn5)cc4)nc32)CC1` [Compound 769, tert-butyl 4-(4-morpholin-4-yl-6-{4-[(pyridin-2-ylcarbamoyl)amino]phenyl}-1H-pyrazolo[3,4-d]pyrimidin-1-yl)piperidine-1-carboxylate] were 2190 nM, 3500 nM and 7000 nM.
Taken in the same sequence, the figures for `COC(=O)Nc1ccc(-c2nc(N3CCOCC3)c3cnn(C4CCN(C(=O)c5ccc(F)cc5F)CC4)c3n2)cc1` [Example 449, methyl (4-{1-[1-(2,4-difluorobenzoyl)piperidin-4-yl]-4-morpholin-4-yl-1H-pyrazolo[3,4-d]pyrimidin-6-yl}phenyl)carbamate] were 800 nM, 500 nM and 1200 nM.
`CNC(=O)Nc1ccc(-c2nc(N3CCOCC3)c3cnn(C4CCC(O)CC4)c3n2)cc1` (stereo not drawn) [Compound 568, 1-{4-[1-(4-hydroxycyclohexyl)-4-morpholin-4-yl-1H-pyrazolo[3,4-d]pyrimidin-6-yl]phenyl}-3-methylurea]: the IC50 in experiment [1] came to 39 nM; in experiment [2] (Homo sapiens, LNCaP, 72 h), 54 nM; in experiment [3] (Homo sapiens, 72 h) it was 240 nM.
Take `CNC(=O)Nc1ccc(-c2nc(N3CCOCC3)c3cnn(C4CCN(Cc5ccc(Cl)nc5)CC4)c3n2)cc1` [Compound 633, 1-[4-(1-{1-[(6-chloropyridin-3-yl)methyl]piperidin-4-yl}-4-morpholin-4-yl-1H-pyrazolo[3,4-d]pyrimidin-6-yl)phenyl]-3-methylurea]: the IC50 in experiment [1] was 47 nM; in experiment [2] it was less than 27 nM; in experiment [3], 48 nM.
Take `O=C(NCCF)Nc1ccc(-c2nc(N3CCOCC3)c3cnn(-c4ccccc4)c3n2)cc1` [Compound 540, 1-(2-fluoroethyl)-3-[4-(4-morpholin-4-yl-1-phenyl-1H-pyrazolo[3,4-d]pyrimidin-6-yl)phenyl]urea]: the IC50 in experiment [1] was 250 nM; in experiment [2] (Homo sapiens, LNCaP, 72 h), 190 nM; in experiment [3] (Homo sapiens, 72 h) it was 900 nM.
As to `CCCOC(=O)N1CCC(n2ncc3c(N4CCOCC4)nc(-c4ccc(NC(=O)NC)cc4)nc32)CC1` [Compound 751, propyl 4-(6-{4-[(methylcarbamoyl)amino]phenyl}-4-morpholin-4-yl-1H-pyrazolo[3,4-d]pyrimidin-1-yl)piperidine-1-carboxylate], the IC50 in experiment [1] was determined as 106 nM; in experiment [2] (Homo sapiens, LNCaP, 72 h), 34 nM; in experiment [3] (Homo sapiens, 72 h) it was 110 nM.
As to `O=C(NO)Nc1ccc(-c2nc(N3CCOCC3)c3cnn(C4CCN(C(=O)c5cccnc5)CC4)c3n2)cc1` [Example 305, 1-hydroxy-3-(4-{4-morpholin-4-yl-1-[1-(pyridin-3-ylcarbonyl)piperidin-4-yl]-1H-pyrazolo[3,4-d]pyrimidin-6-yl}phenyl)urea], the IC50 worked out at 604 nM in experiment [1]; 10100 nM in experiment [2] (Homo sapiens, LNCaP, 72 h); 7200 nM in experiment [3] (Homo sapiens, 72 h).
In the case of `c1ccc(CN2CCC(n3ncc4c(N5CCOCC5)nc(-c5ccn[nH]5)nc43)CC2)cc1` [Compound 188], the IC50 in experiment [1] worked out at 3000 nM; in experiment [2] (Homo sapiens, LNCaP, 72 h), 7000 nM; in experiment [3] (Homo sapiens, 72 h) it was 19000 nM.
For `Nc1ccc(-c2nc(N3CCOCC3)c3cnn(C4CCN(Cc5cccnc5)CC4)c3n2)cn1` [Example 210, 5-{4-morpholin-4-yl-1-[1-(pyridin-3-ylmethyl)piperidin-4-yl]-1H-pyrazolo[3,4-d]pyrimidin-6-yl}pyridin-2-amine] the same measures were 108 nM, 200 nM and 1100 nM.
For `CCONC(=O)Nc1ccc(-c2nc(N3CCOCC3)c3cnn(C4CCN(Cc5ccccc5)CC4)c3n2)cc1` [Compound 533, 1-{4-[1-(1-benzylpiperidin-4-yl)-4-morpholin-4-yl-1H-pyrazolo[3,4-d]pyrimidin-6-yl]phenyl}-3-ethoxyurea] the same measures were 273 nM, 680 nM and 160 nM.
